# Assay results reported in patent publication US5514705A, “Epidioxymanadic acids A and B” (PharmaMar, S.A., priority 1994, dated 1996).
# Legend:
# Assay type in all cases: cell-based
# [1] = tested on: HT29 (human colon carcinoma); assay: Cytotoxicity against HT29 cell line in culture; conditions: HT-29; HT29 human colon carcinoma cells in culture
# MEL-28 (human melanoma) = assay: Cytotoxicity against MEL-28 cell line in culture; conditions: SK-MEL-28; MEL-28 human melanoma cells in culture
# [2] = tested on: A549 (human lung carcinoma); assay: Cytotoxicity against A549 cell line in culture; conditions: A549 human lung carcinoma cells in culture
# P388 (leukemia) = assay: Cytotoxicity against P388 cell line in culture; conditions: Mus musculus; P388 leukemia cells in culture
smiles,measurement,setting,value
"C/C=C(C)/C=C/CCC[C@@]1(OC)C[C@H](C)[C@H](CC(=O)O)OO1 [Epidioxymanadic A, epidioxymanadic acid A]",IC50,[1],2 µg/mL
same,IC50,MEL-28 (human melanoma),5 µg/mL
same,IC50,[2],1 µg/mL
same,IC50,P388 (leukemia),0.5 µg/mL
"CC/C=C(C)/C=C/CCC[C@@]1(OC)C[C@H](C)[C@H](CC(=O)O)OO1 [Epidioxymanadic B, epidioxymanadic acid B]",IC50,[1],2 µg/mL
same,IC50,MEL-28 (human melanoma),2.5 µg/mL
same,IC50,[2],1 µg/mL
same,IC50,P388 (leukemia),0.5 µg/mL
